Test results reported in patent US20050084546A1, “Antioxidant and antiactinic tea plant products” (priority 2003, published 2005).

Legend:
[1] = tested on: fibroblasts and keratinocytes; assay: Free radical (ROS, xanthine oxidase/hypoxanthine) cytotoxicity inhibition, MTT dye method; format: cell-based; details: about 24 hours
Description: Xanthine oxidase and hypoxanthine, referenced “XO” in Table 2, are employed together as a system to generate free radicals such as hydrogen peroxide, the hydroxyl radical and superoxide, as is known in the art. The free radical products of xanthine oxidase and hypoxanthine referenced “ROS” hereinafter, provide a test system which can be used to model the ability of test materials to protect biological organisms against the action of free radicals.
Test 2 determines the ability of the group of test materials employed in Test 1 to reduce ROS cytotoxicity to fibroblasts and keratinocytes. Cells are seeded in 96-well plates and grown for two days. They are then exposed for about 24 hours to hypoxanthine at 100 □ g/ml and to various concentrations of xanthine oxidase, ranging, as shown in Table 2's column headers, from 2 mU/ml to 40 mU/ml. Fresh culture medium is added after exposure to ROS and cell death is assessed by the conventional MTT dye method wherein light absorbence at 570 nm is measured. Only living cells take up the MTT dye which absorbs at the measurement wavelength. The cytotoxicity test results, using the quantity of the test materials listed to inhibit free radical toxicity, are set forth in Table 2, below. The control is an aliquot of water.

[2] = tested on: stratum corneum (skin cell turnover); assay: In vivo inhibition of UV-induced skin cell renewal, dansyl chloride staining technique; set-up: species or system human
Experimental: The dansyl chloride staining technique is used to measure rates of skin cell turnover, under normal conditions and under conditions of exposure to ultraviolet light with and without protection from various test materials.
Summarizing known procedural methods, the stratum corneum is stained with fluorescent dansyl chloride by applying semi-occlusive patches of 5% dansyl chloride milled into petrolatum for 24 hours. After assuring that the stain is completely taken up by the stratum corneum layers by viewing under a quartz mineral lamp, subjects are instructed to apply water or the test product. Skin sites are treated with the various doses of UV indicated in MED in Table 6A, below, 3 days prior to and 1 day after patching with dansyl chloride. Visual inspection of the sites under UV lamp is made until the stain disappears reflecting the time required for complete turnover of the full thickness stratum corneum. Changes in cell renewal due to test material effects and UV exposure can be expressed as a percentage change compared to water-treated or untreated controls.

[3] = tested on: Cytochrome C; assay: In vitro cytochrome C oxidation-reduction assay in the presence of isolated neutrophils (antioxidant activity); format: biochemical
Description: An in vitro cytochrome C oxidation-reduction assay conducted in the presence of isolated neutrophils is used to assess the antioxidant activity of a group of test materials comprising aqueous extracts of the inventive mixed tea blend prepared by the method of Example 3 having the concentrations indicated in Table 1, below, and known antioxidant materials, namely green tea extract, white tea extract, grape polyphenols and vitamin E, as controls. Reduction of cytochrome C by free radicals causes an increase in light absorbence at 550 nm. Cytochrome C is an ubiquitous iron-containing cellular respiratory enzyme. Singlet oxygen prevents free radical reduction and the consequent increase in light absorbance. The oxidation-reduction assay determines the ability of the test materials to control the activity of chemically generated singlet oxygen, permitting the reductive free radicals to induce increased light absorbence, which is measured.
The assay system employed, determination of the impact of singlet oxygen on a biological entity, cytochrome C, is believed to be a useful model of in vivo activity. However, the invention is not dependent upon this or any other theory.

[4] = tested on: Fibroblasts; assay: UV cytotoxicity assay, cell count in hemocytometer; format: cell-based
Experimental: Fibroblasts, grown in Dulbecco medium (DM) supplemented with fetal calf serum are plated in 24 well plates at a density of 20,000 cells per well. Twelve hours after plating, fresh DM with fetal calf serum is added. After an additional 12 hours various test materials as set forth in Table 3, are added to the wells. Six, twelve and twenty four hours later, cultures are exposed to UV at varying low and high doses. The low dose is chosen to stimulate growth and cause a hyper-proliferative response, while the higher dose is chosen to induce cytotoxic effects. After 72 and 144 hours, cells are trypsinized, and counted in a hemocytometer chamber. The cytotoxicity test results using the indicated quantities of the test materials to inhibit free radical toxicity, are set forth in Table 3, below. The control is an aliquot of water.

Substance: vitamin E
- Cell Survival after Exposure to ROS Free Radicals ([1]; XO 2 mU, hypoxanthine […]): 89%
- Cell Survival after Exposure to ROS Free Radicals ([1]; XO 10 mU, hypoxanthine 100 µg/ml): 47%
- Cell Survival after Exposure to ROS Free Radicals ([1]; XO 20 mU, hypoxanthine 100 µg/ml): 25%
- Cell Survival after Exposure to ROS Free Radicals ([1]; XO 40 MU, hypoxanthine […]): 13%
- Hyperproliferative Effect ([2]; decrease in turnover time with UV versus no UV): 41.9%
- Skin cell turnover, No UV Exposure ([2]; time for dansyl chloride stain to disappear (Table 5 gives turnover in days), no UV): 18.1
- Skin cell turnover, UV Exposure ([2]; time for dansyl chloride stain to disappear (Table 5 gives turnover in days), with UV exposure): 10.5
- Protection against UV-induced hyperproliferation (in words) ([2]; topical, UV exposure): no protection
- Inhibition of Cytochrome C Oxidation ([3]; test material 0.1 μg/ml): 21%
- Inhibition of Cytochrome C Oxidation ([3]; test material 1.0 μg/ml): 15%
- Inhibition of Cytochrome C Oxidation ([3]; test material 10 μg/ml): 11%
- Inhibition of Cytochrome C Oxidation ([3]; test material 25 μg/ml): 14%
- Cell Survival after Exposure to UV ([4]; UV 1 mJ/cm2): 65%
- Cell Survival after Exposure to UV ([4]; UV 2 mJ/cm2): 42%
- Cell Survival after Exposure to UV ([4]; UV 5 mJ/cm2): 35%
- Cell Survival after Exposure to UV ([4]; UV 10 mJ/cm2): 20%
